The supplement of paper PMC4862054

Key:
Details in all cases: incubation time: 72 h
CAL-120 = assay: normalised viability (% of control), CellTiter-Blue; higher = more viable cells (about 100 = DMSO control)
Summary of the method: (§1)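 Each value is normalised viability at a single listed concentration of the series. Breast cancer cell lines in 384-well plates were incubated 72 h with compound and read by CellTiter-Blue fluorescence at 560/590 nm, with vehicle set to 100 and a positive kill control to 0 on every plate.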

DU-4475 [1] = assay: as above
Summary of the method: as §1

Hs578T [2] = assay: as above
Summary of the method: as §1

MFM-223 = assay: as above
Summary of the method: as §1

BT-549 [3] = assay: as above
Summary of the method: as §1

MDA-MB-231 [4] = assay: as above
Summary of the method: as §1

CAL-148 [5] = assay: as above
Summary of the method: as §1

MDA-MB-453 [6] = assay: as above
Summary of the method: as §1

MDA-MB-468 [7] = assay: as above
Summary of the method: as §1

MCF-10A = assay: drug sensitivity score (DSS), CellTox Green (DSS (AUC-based score)); higher = stronger drug effect (viability inhibition or cytotoxicity); extreme values may be limits of the assay
Summary of the method: (§2)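 Using 20 µl of cell suspension per well, breast cancer cell lines were seeded into 384-well plates pre-loaded with compound at 5 concentrations in 10-fold steps across a compound-specific 10,000-fold range. Incubation lasted 72 h, after which CellTox Green fluorescence at 485/520 nm and then CellTiter-Glo luminescence, following 10 min at room temperature, were recorded. Each plate was normalised to 0.1 % DMSO and a positive kill control before the drug sensitivity score was derived from the area under the fitted dose-response curve.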

CAL-51 = assay: as above
Summary of the method: as §2

DU-4475 [8] = assay: as above
Summary of the method: as §2

HDQ-P1 = assay: as above
Summary of the method: as §2

Hs578T [9] = assay: as above
Summary of the method: as §2

BT-549 [10] = assay: as above
Summary of the method: as §2

HCC1937 = assay: as above
Summary of the method: as §2

MDA-MB-436 = assay: as above
Summary of the method: as §2

MDA-MB-231 [11] = assay: as above
Summary of the method: as §2

CAL-148 [12] = assay: as above
Summary of the method: as §2

MDA-MB-453 [13] = assay: as above
Summary of the method: as §2

HCC1599 = assay: as above
Summary of the method: as §2

MDA-MB-468 [14] = assay: as above
Summary of the method: as §2

HCC1143 = assay: as above
Summary of the method: as §2

CAL-85-1 = assay: as above
Summary of the method: as §2

BT-474 = assay: as above
Summary of the method: as §2

C=CCn1c(=O)c2cnc(Nc3ccc(N4CCN(C)CC4)cc3)nc2n1-c1cccc(C(C)(C)O)n1 [MK1775]
normalised viability [%]
Details | BT-549 [3] | CAL-120 | CAL-148 [5] | DU-4475 [1] | Hs578T [2] | MDA-MB-231 [4] | MDA-MB-453 [6] | MDA-MB-468 [7] | MFM-223
3 nM | – | – | 85.1 | 87.8 | – | – | 89.6 | – | –
10 nM | 103 | 91.2 | – | – | 111 | 84 | – | 110 | 102
30 nM | – | – | 92.8 | 98.3 | – | – | 86.3 | – | –
100 nM | – | – | 81.5 | 75.7 | – | – | 88.7 | – | –
1000 nM | 31 | 26 | – | – | 34.4 | 26.9 | – | 46.3 | 44.3
10000 nM | 9.32 | 9.09 | – | – | 16.2 | 16.9 | – | 10.1 | 40.1

Details | drug sensitivity score
BT-474 | 6.62
BT-549 [10] | 9.39
CAL-51 | 15.7
CAL-85-1 | 16.5
CAL-148 [12] | 21.1
DU-4475 [8] | 0
HCC1143 | 3.3
HCC1599 | 4.9
HCC1937 | 0
HDQ-P1 | 9.56
Hs578T [9] | 9.43
MCF-10A | 8.71
MDA-MB-231 [11] | 19.8
MDA-MB-436 | 13.8
MDA-MB-453 [13] | 0
MDA-MB-468 [14] | 11.1

Nc1ccn([C@@H]2O[C@H](CO)[C@@H](O)C2(F)F)c(=O)n1 [Gemcitabine]
normalised viability [%]
Details | BT-549 [3] | CAL-120 | CAL-148 [5] | DU-4475 [1] | Hs578T [2] | MDA-MB-231 [4] | MDA-MB-453 [6] | MDA-MB-468 [7] | MFM-223
0.3 nM | – | – | 102 | 95.1 | – | – | 114 | – | –
1 nM | 92.8 | 107 | – | – | 106 | 97.9 | – | 104 | 99.7
3 nM | – | – | 92.1 | 88.3 | – | – | 91.7 | – | –
10 nM | – | – | 65.2 | 98.2 | – | – | 97.9 | – | –
100 nM | 69.9 | 41.6 | – | – | 62.6 | 72.1 | – | 35.5 | 95.6
1000 nM | 61 | 43 | – | – | 71.5 | 72.2 | – | 24.6 | 34.9

Details | drug sensitivity score
BT-474 | 0
BT-549 [10] | 0
CAL-51 | 13.4
CAL-85-1 | 4.04
CAL-148 [12] | 11.2
DU-4475 [8] | 0
HCC1143 | 0
HCC1599 | 0
HCC1937 | 0
HDQ-P1 | 0
Hs578T [9] | 0
MCF-10A | 0
MDA-MB-231 [11] | 0
MDA-MB-436 | 0
MDA-MB-453 [13] | 0
MDA-MB-468 [14] | 19.7

C/C(=C\c1csc(C)n1)[C@@H]1C[C@@H]2O[C@]2(C)CCC[C@H](C)[C@H](O)[C@@H](C)C(=O)C(C)(C)[C@@H](O)CC(=O)N1 [Ixabepilone]
normalised viability [%]
Details | BT-549 [3] | CAL-120 | CAL-148 [5] | DU-4475 [1] | Hs578T [2] | MDA-MB-231 [4] | MDA-MB-453 [6] | MDA-MB-468 [7] | MFM-223
0.3 nM | – | – | 95.2 | 95.4 | – | – | 108 | – | –
1 nM | 69.2 | 75.6 | – | – | 107 | 84.7 | – | 97.8 | 76.8
3 nM | – | – | 97.1 | 77 | – | – | 87.4 | – | –
10 nM | – | – | 92.8 | 92.4 | – | – | 87.3 | – | –
100 nM | 96.9 | 78.3 | – | – | 98.8 | 51.6 | – | 88.5 | 75.8
1000 nM | 19.6 | 50.4 | – | – | 25 | 16.8 | – | 45.4 | 31.6

Details | drug sensitivity score
BT-474 | 0
BT-549 [10] | 5.33
CAL-51 | 11.7
CAL-85-1 | 4.02
CAL-148 [12] | 0
DU-4475 [8] | 0
HCC1143 | 0
HCC1599 | 0
HCC1937 | 0
HDQ-P1 | 0
Hs578T [9] | 0
MCF-10A | 0
MDA-MB-231 [11] | 0.915
MDA-MB-436 | 0
MDA-MB-453 [13] | 0
MDA-MB-468 [14] | 1.3

COc1cc(Nc2c(C#N)cnc3cc(OCCCN4CCN(C)CC4)c(OC)cc23)c(Cl)cc1Cl [Bosutinib]
normalised viability [%]
Details | BT-549 [3] | CAL-120 | CAL-148 [5] | DU-4475 [1] | Hs578T [2] | MDA-MB-231 [4] | MDA-MB-453 [6] | MDA-MB-468 [7] | MFM-223
3 nM | – | – | 77.2 | 105 | – | – | 120 | – | –
10 nM | 91.9 | 87.5 | – | – | 120 | 98.9 | – | 104 | 100
30 nM | – | – | 92.3 | 108 | – | – | 107 | – | –
100 nM | – | – | 87.6 | 86.5 | – | – | 105 | – | –
1000 nM | 95.4 | 70.5 | – | – | 98.2 | 142 | – | 95.2 | 80.8
10000 nM | 6.38 | 11.1 | – | – | 27.4 | 2.42 | – | 14.5 | 36.8

Details | drug sensitivity score
BT-474 | 5.18
BT-549 [10] | 1.47
CAL-51 | 5.81
CAL-85-1 | 8.13
CAL-148 [12] | 2.51
DU-4475 [8] | 0
HCC1143 | 0
HCC1599 | 0.637
HCC1937 | 1.87
HDQ-P1 | 3.06
Hs578T [9] | 3.59
MCF-10A | 7.8
MDA-MB-231 [11] | 7.99
MDA-MB-436 | 2.19
MDA-MB-453 [13] | 1.6
MDA-MB-468 [14] | 5.02

CNC(=O)c1ccccc1Sc1ccc2c(/C=C/c3ccccn3)n[nH]c2c1 [Axitinib]
normalised viability [%]
Details | BT-549 [3] | CAL-120 | CAL-148 [5] | DU-4475 [1] | Hs578T [2] | MDA-MB-231 [4] | MDA-MB-453 [6] | MDA-MB-468 [7] | MFM-223
3 nM | – | – | 83 | 107 | – | – | 103 | – | –
10 nM | 96.6 | 91.2 | – | – | 92.1 | 102 | – | 108 | 86.7
30 nM | – | – | 95.3 | 114 | – | – | 108 | – | –
100 nM | – | – | 90.1 | 97 | – | – | 97.2 | – | –
1000 nM | 92.6 | 94.7 | – | – | 93 | 88.7 | – | 99.4 | 47.6
10000 nM | 42.5 | 55.2 | – | – | 54.2 | 72.1 | – | 43.8 | 47.7

Details | drug sensitivity score
BT-474 | 0
BT-549 [10] | 0
CAL-51 | 6.53
CAL-85-1 | 0
CAL-148 [12] | 2.44
DU-4475 [8] | 0
HCC1143 | 0
HCC1599 | 0
HCC1937 | 0
HDQ-P1 | 0
Hs578T [9] | 0
MCF-10A | 0
MDA-MB-231 [11] | 0
MDA-MB-436 | 0
MDA-MB-453 [13] | 0
MDA-MB-468 [14] | 0
